Target: T1, alpha7 nicotinic acetylcholine receptor (Rattus norvegicus, UniProt Q05941)
T1 construct: expressed in transfected cells
Format: cell-based
Conditions: agonist concentration-response 0.001 to 30 microM; rat alpha7 nAChR in GH4C1 cells; assay validation
From the text: Rat GH4C1 cells were then transfected with the rat receptor, cloned and analyzed for functional alpha7 nicotinic receptor expression employing a FLIPR assay to measure changes in intracellular calcium concentrations. […] Three cell lines were then expanded and one characterised pharmacologically (see Table 2 below) prior to its subsequent use for compound screening.
The FLIPR system allows the measurements of real time Ca^2+-concentration changes in living cells using a Ca^2+ sensitive fluorescence dye (such as Fluo4). This instrument enables the screening for agonists and antagonists for alpha 7 nAChR channels stably expressed in GH4C1 cells.
GH4C1 cells stably transfected with rat-alphα7-nAChR (see above) were used. These cells are poorly adherent and therefore pretreatment of flasks and plates with poly-D-lysine was carried out. Cells are grown in 150 cm^2 T-flasks, filled with 30 ml of medium at 37° C. and 5% CO2.
EC50 and IC50 values were calculated using the IDBS XLfit4.1 software package employing a sigmoidal concentration-response (variable slope) equation:
The compounds were tested using the functional FLIPR primary screening assay employing the stable recombinant GH4C1 cell line expressing the alpha7 nAChR. Hits identified were validated further by generation of concentration-response curves.

T1 sequence (Q05941 23-502): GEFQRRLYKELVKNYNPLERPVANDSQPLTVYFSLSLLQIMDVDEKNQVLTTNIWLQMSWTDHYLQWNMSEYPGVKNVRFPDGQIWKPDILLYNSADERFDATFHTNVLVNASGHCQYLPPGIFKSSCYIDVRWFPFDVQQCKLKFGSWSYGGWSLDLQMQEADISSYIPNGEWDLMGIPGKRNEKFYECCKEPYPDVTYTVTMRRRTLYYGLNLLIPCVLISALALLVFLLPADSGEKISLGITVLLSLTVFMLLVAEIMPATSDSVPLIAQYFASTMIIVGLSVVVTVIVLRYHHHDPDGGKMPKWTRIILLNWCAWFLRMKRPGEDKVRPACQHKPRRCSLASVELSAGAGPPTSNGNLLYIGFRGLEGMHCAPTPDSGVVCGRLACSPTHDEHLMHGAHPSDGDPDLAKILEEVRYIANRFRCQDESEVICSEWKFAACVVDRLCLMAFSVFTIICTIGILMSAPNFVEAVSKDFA

C[N+]1(C)CCN(c2ccccc2)CC1 [DMPP]
EC50: 980 ± 470 nM
